The source made the active and inactive calls. No cut-off for these calls is given here. *1 amine or outer side, *2 acyl side, *3 side chain or, on linkers, in order; H or OH if unused. Where a SMILES comes first, the peptide text is derived from it. [ ]: non-standard residue; d: D form. The star is where a group is joined. ACHC(1S,2S) = O=C([C@H]1CCCC[C@@H]1N[*:1])[*:2]; Acryloyl(3-(3-pyridyl),E) = O=C(/C=C/c1cccnc1)*; Phe(3,4-Cl2) = N[C@@H](Cc1ccc(Cl)c(Cl)c1)C(=O)O; Acetyl(1-naphthyl) = O=C(Cc1cccc2ccccc12)*; Oic = O=C(O)[C@@H]1C[C@@H]2CCCC[C@@H]2N1; Caffeoyl = O=C(/C=C/c1ccc(O)c(O)c1)*; X6 = O=C([C@@H]1CC(O)CN1[*:1])[*:2]; NMeR = CN[C@@H](CCCNC(=N)N)C(=O)O; tBuAla = CC(C)(C)C[C@H](N)C(=O)O; Cha = N[C@@H](CC1CCCCC1)C(=O)O; NMeD = CN[C@@H](CC(=O)O)C(=O)O; Phe(ol) = N[C@H](CO)Cc1ccccc1; NHPhenethyl = c1ccc(CCN*)cc1; X1 = O=C(/C=C/c1ccccc1)*; Sar = CNCC(=O)O
Key:
[1] = system: Escherichia coli; experiment: Binding affinity to Escherichia coli sliding clamp assessed as gibbs free energy change by ITC analysis
[2] = system: Escherichia coli; experiment: Binding affinity to Escherichia coli sliding clamp assessed as association rate constant by ITC analysis
[3] = Binding affinity to Escherichia coli sliding clamp assessed as dissociation constant by ITC analysis
[4] = system: Escherichia coli; experiment: Binding affinity to Escherichia coli sliding clamp assessed as dissociation rate constant by ITC analysis
[5] = system: Escherichia coli; experiment: Antimicrobial activity against Escherichia coli D22 at 128 ug/ml incubated 18 to 24 hrs by broth microdilution method; format: functional, organism-based; details: dose 128.0 µg/ml, time 18-24 hrs
[6] = Inhibition of SC-dependent DNA replication in Escherichia coli using pU118 DNA as substrate preincubated for 10 mins followed by substrate addition and measured after 6 mins by PAGE electrophoresis

With `CC(C)C[C@H](NC(=O)[C@H](CC(=O)O)NC(=O)[C@H](CC1CCCCC1)NC(=O)[C@H](CCC(N)=O)NC(=O)/C=C/c1ccccc1)C(=O)N[C@@H](Cc1ccccc1)C(=O)O` (X1-Q[Cha]DLF-OH) the deltaG [1] was -9.4 kcal/mol, the K [2] was 4.6 10^4/M/s and the Kd [3] was 129 nM. The K [4] was 6.5 10^-3/s and the Activity [5] was “inactive”.
For `CC(C)C[C@H](NC(=O)[C@H](CC(=O)O)N(C)C(=O)[C@H](CC1CCCCC1)NC(=O)[C@H](CCC(N)=O)NC(=O)/C=C/c1cccnc1)C(=O)N1CCC[C@H]1C(=O)N[C@@H](Cc1ccccc1)C(=O)O` ({Acryloyl(3-(3-pyridyl),E)}-Q[Cha][NMeD]LPF-OH), the deltaG [1] was -10.2 kcal/mol, the K [2] was 1.4 10^5/M/s and the Kd [3] was 35 nM. The K [4] was 5.2 10^-3/s and the Activity [5] was “inactive”.
For `CC(C)C[C@H](NC(=O)[C@H](CC(=O)O)NC(=O)[C@H](CC1CCCCC1)NC(=O)[C@H](CCC(N)=O)NC(=O)/C=C/c1cccnc1)C(=O)N[C@@H](Cc1ccccc1)C(=O)O` ({Acryloyl(3-(3-pyridyl),E)}-Q[Cha]DLF-OH), the deltaG [1] was -9.3 kcal/mol, the K [2] was 4.6 10^4/M/s and the Kd [3] was 156 nM. For the same compound, the K [4] was 7.4 10^-3/s and the Activity [5] was “inactive”.
For `CC(=O)N[C@@H](CCC(N)=O)C(=O)N[C@@H](CC1CCCCC1)C(=O)N[C@@H](CC(=O)O)C(=O)N[C@@H](CC(C)C)C(=O)N[C@@H](Cc1ccccc1)C(=O)O` (Ac-Q[Cha]DLF-OH), the deltaG [1] was -9.2 kcal/mol, the K [2] was 4 10^4/M/s and the IC50 [6] was 3200 nM. The Kd [3] was 194 nM and the K [4] was 7.4 10^-3/s.
With `CC(=O)N[C@@H](CCC(N)=O)C(=O)N[C@@H](CC1CCCCC1)C(=O)N[C@@H](CC(=O)O)C(=O)N[C@@H](CC(C)C)C(=O)N1[C@H](C(=O)N[C@@H](Cc2ccc(Cl)c(Cl)c2)C(=O)O)C[C@@H]2CCCC[C@@H]21` (Ac-Q[Cha]DL[Oic][Phe(3,4-Cl2)]-OH) the deltaG [1] was -10.1 kcal/mol, the K [2] was 6 10^4/M/s and the IC50 [6] was 150 nM. The Kd [3] was 39 nM, the K [4] was 2.3 10^-3/s and the Activity [5] was “inactive”.
In the case of `CC(C)C[C@H](NC(=O)[C@H](CC(=O)O)N(C)C(=O)[C@H](CC1CCCCC1)NC(=O)[C@H](CCC(N)=O)NC(=O)/C=C/c1cccnc1)C(=O)N[C@@H](Cc1ccc(Cl)c(Cl)c1)C(=O)O` ({Acryloyl(3-(3-pyridyl),E)}-Q[Cha][NMeD]L[Phe(3,4-Cl2)]-OH), the deltaG [1] is reported as -10.1 kcal/mol, the K [2] is reported as 1.1 10^5/M/s and the Kd [3] is reported as 46 nM. The K [4] was 5.5 10^-3/s and the Activity [5] was “inactive”.
With `CC(=O)N[C@@H](CCC(N)=O)C(=O)N[C@@H](CC1CCCCC1)C(=O)N[C@@H](CC(=O)O)C(=O)N[C@@H](CC(C)C)C(=O)N[C@H]1CCCC[C@@H]1C(=O)N[C@@H](CC(C)C)C(=O)O` (Ac-Q[Cha]DL[ACHC(1S,2S)]L-OH) the deltaG [1] was -7.4 kcal/mol, the K [2] was 7.4 10^4/M/s and the Kd [3] was 4070 nM. For the same compound, the K [4] was 2.9 10^-2/s.
With `CC(C)C[C@H](NC(=O)[C@H](CC(=O)O)NC(=O)[C@H](CC1CCCCC1)NC(=O)[C@H](CCC(N)=O)NC(=O)/C=C/c1ccc(O)c(O)c1)C(=O)N[C@@H](Cc1ccccc1)C(=O)O` (Caffeoyl-Q[Cha]DLF-OH) the deltaG [1] was -9.5 kcal/mol, the K [2] was 4.6 10^4/M/s and the Kd [3] was 99 nM. For the same compound, the K [4] was 4.7 10^-3/s.
With `CC(=O)N(C)[C@@H](CCCNC(=N)N)C(=O)N[C@@H](CCC(N)=O)C(=O)N[C@@H](CC1CCCCC1)C(=O)N(C)[C@@H](CC(=O)O)C(=O)N[C@@H](CC(C)C)C(=O)N[C@@H](Cc1ccc(Cl)c(Cl)c1)C(=O)O` (Ac-[NMeR]Q[Cha][NMeD]L[Phe(3,4-Cl2)]-OH) the deltaG [1] was -9.6 kcal/mol, the K [2] was 1.1 10^5/M/s and the Kd [3] was 92 nM. For the same compound, the K [4] was 9.4 10^-3/s.
For `CC(=O)N[C@@H](CCC(N)=O)C(=O)N[C@@H](CC1CCCCC1)C(=O)N[C@@H](CC(=O)O)C(=O)N[C@@H](CC(C)C)C(=O)N(C)CC(=O)N[C@@H](CC(C)C)C(=O)O` (Ac-Q[Cha]DL[Sar]L-OH), the deltaG [1] was -8.5 kcal/mol, the K [2] was 4 10^4/M/s and the Kd [3] was 583 nM. The K [4] was 2.1 10^-2/s and the Activity [5] was “inactive”.
With `CC(=O)N[C@@H](CCC(N)=O)C(=O)N[C@@H](CC1CCCCC1)C(=O)N[C@@H](CC(=O)O)C(=O)N[C@@H](CC(C)C)C(=O)N1CC(O)C[C@H]1C(=O)N[C@@H](CC(C)C)C(=O)O` (stereo partly drawn) (Ac-Q[Cha]DL[X6]L-OH) the deltaG [1] was -8.8 kcal/mol, the K [2] was 4.4 10^4/M/s and the Kd [3] was 369 nM. The K [4] was 1.7 10^-2/s.
With `CC(C)C[C@H](NC(=O)[C@@H]1CCCN1C(=O)[C@H](CC(C)C)NC(=O)[C@H](CC(=O)O)N(C)C(=O)[C@H](CC1CCCCC1)NC(=O)[C@H](CCC(N)=O)NC(=O)/C=C/c1cccnc1)C(=O)O` ({Acryloyl(3-(3-pyridyl),E)}-Q[Cha][NMeD]LPL-OH) the deltaG [1] was -9.2 kcal/mol, the K [2] was 6.3 10^4/M/s and the Kd [3] was 177 nM. For the same compound, the K [4] was 1.1 10^-2/s.
For `CC(=O)N[C@@H](CCC(N)=O)C(=O)N[C@@H](CC1CCCCC1)C(=O)N[C@@H](CC(=O)O)C(=O)N[C@@H](CC(C)C)C(=O)NCC(=O)N[C@@H](CC(C)(C)C)C(=O)O` (Ac-Q[Cha]DLG[tBuAla]-OH), the deltaG [1] was -7.6 kcal/mol, the K [2] was 1.1 10^4/M/s and the Kd [3] was 2690 nM. The K [4] was 3 10^-2/s.
In the case of `CC(=O)N[C@@H](CCC(N)=O)C(=O)N[C@@H](CC1CCCCC1)C(=O)N[C@@H](CC(=O)O)C(=O)N[C@@H](CC(C)C)C(=O)N1[C@H](C(=O)N[C@@H](CC(C)C)C(=O)O)C[C@@H]2CCCC[C@@H]21` (Ac-Q[Cha]DL[Oic]L-OH), the deltaG [1] is reported as -9.9 kcal/mol, the K [2] is reported as 7.1 10^4/M/s and the Kd [3] is reported as 57 nM. The K [4] was 3.9 10^-3/s.
With `CC(=O)N[C@@H](CCC(N)=O)C(=O)N[C@@H](CC1CCCCC1)C(=O)N[C@@H](CC(=O)O)C(=O)N[C@@H](CC(C)C)C(=O)NCCc1ccccc1` (Ac-Q[Cha]DL-NHPhenethyl) the deltaG [1] was -8.2 kcal/mol, the K [2] was 1.9 10^4/M/s and the Kd [3] was 922 nM. The K [4] was 1.8 10^-2/s.
In the case of `CC(=O)N[C@@H](CCC(N)=O)C(=O)N[C@@H](CC1CCCCC1)C(=O)N[C@@H](CC(=O)O)C(=O)N[C@@H](CC(C)C)C(=O)N1[C@H](C(=O)N[C@@H](Cc2ccccc2)C(=O)O)C[C@@H]2CCCC[C@@H]21` (Ac-Q[Cha]DL[Oic]F-OH), the deltaG [1] is reported as -9.5 kcal/mol, the K [2] is reported as 5.5 10^4/M/s and the Kd [3] is reported as 120 nM. For the same compound, the K [4] was 7.1 10^-3/s.
In the case of `CC(C)C[C@H](NC(=O)[C@@H]1CCCN1C(=O)[C@H](CC(C)C)NC(=O)[C@H](CC(=O)O)NC(=O)[C@H](CC1CCCCC1)NC(=O)[C@H](CCC(N)=O)NC(=O)/C=C/c1ccccc1)C(=O)O` (X1-Q[Cha]DLPL-OH), the deltaG [1] is reported as -9.4 kcal/mol, the K [2] is reported as 6 10^4/M/s and the Kd [3] is reported as 132 nM. The K [4] was 8 10^-3/s.
For `CC(=O)N[C@@H](CCCNC(=N)N)C(=O)N[C@@H](CCC(N)=O)C(=O)N[C@@H](CC1CCCCC1)C(=O)N[C@@H](CC(=O)O)C(=O)N[C@@H](CC(C)C)C(=O)N[C@@H](Cc1ccccc1)C(=O)O` (Ac-RQ[Cha]DLF-OH), the deltaG [1] was -8.6 kcal/mol, the K [2] was 3.7 10^4/M/s and the Kd [3] was 498 nM. The K [4] was 1.9 10^-2/s.
For `CC(C)C[C@H](NC(=O)[C@H](CC(=O)O)NC(=O)[C@H](CC1CCCCC1)NC(=O)[C@H](CCC(N)=O)NC(=O)Cc1cccc2ccccc12)C(=O)N[C@@H](Cc1ccccc1)C(=O)O` ({Acetyl(1-naphthyl)}-Q[Cha]DLF-OH), the deltaG [1] was -9.6 kcal/mol, the K [2] was 6.5 10^4/M/s and the Kd [3] was 89 nM. The K [4] was 5.7 10^-3/s.
With `CC(=O)N[C@@H](CCC(N)=O)C(=O)N[C@@H](CC1CCCCC1)C(=O)N[C@@H](CC(=O)O)C(=O)N[C@@H](CC(C)C)C(=O)N[C@@H](Cc1ccccc1)C(N)=O` (Ac-Q[Cha]DLF-NH2) the deltaG [1] was -9 kcal/mol, the K [2] was 3.3 10^4/M/s and the Kd [3] was 268 nM. The K [4] was 9.1 10^-3/s.
For `CC(=O)N[C@@H](CCC(N)=O)C(=O)N[C@@H](CC1CCCCC1)C(=O)N[C@@H](CC(=O)O)C(=O)N[C@@H](CC(C)C)C(=O)N[C@H](CO)Cc1ccccc1` (Ac-Q[Cha]DL[Phe(ol)]), the deltaG [1] was -8.4 kcal/mol, the K [2] was 2.6 10^4/M/s and the Kd [3] was 751 nM. The K [4] was 1.9 10^-2/s.

From ChEMBL document CHEMBL5053545, “Iterative Structure-Based Optimization of Short Peptides Targeting the Bacterial Sliding Clamp” (J Med Chem, 2021)
